Data from patent EP0730589B1, “ISOXAZOLINE COMPOUNDS USEFUL AS […] ANTAGONISTS” (THE DU PONT MERCK PHARMACEUTICAL COMPANY, priority 1993, dated 1995).

Test system: platelet aggregation
Test: Platelet aggregation assay (platelet rich plasma, PRP)
Type: cell-based
Conditions: inhibition of agonist-induced aggregation in human platelet rich plasma (PRP); ester prodrugs preincubated with porcine liver esterase, ADP-induced
Procedure: Platelet Aggregation Assay: Venous blood was obtained from the arm of a healthy human donor who was drug-free and aspirin-free for at least two weeks prior to blood collection. Blood was collected into 10 mL citrated vacutainer tubes. The blood was centrifuged for 15 minutes at 150 x g at room temperature, and platelet-rich plasma (PRP) was removed. The remaining blood was centrifuged for 15 minutes at 1500 x g at room temperature, and platelet-poor plasma (PPP) was removed. Samples were assayed on a aggregometer (PAP-4 Platelet Aggregation Profiler), using PPP as the blank (100% transmittance). 200 µL of PRP was added to each micro test tube, and transmittance was set to 0%. 20 µL of various agonists (ADP, collagen, arachidonate, epinephrine, thrombin) were added to each tube, and the aggregation profiles were plotted (% transmittance versus time). The results are expressed as % inhibition of agonist-induced platelet aggregation. For the IC50 evaluation, the test compounds were added at various concentrations prior to the activation of the platelets.
Ester prodrugs were preincubated (10^-3 M F.C.) with 100 IU/ml Porcine liver esterase (Sigma Chemical Co., St. Louis, MO, #E-3128) for 2 hours at 37 °C. Aliquots are then diluted in 0.1 M Tris, pH 7.4, to the desired concentrations. Aliquots of 20 µl of the esterase pretreated prodrugs are added to 200 µl of human platelet rich plasma. Samples were placed in platelet profiler (aggregometer) for 8 minutes at 37 °C, followed by the addition of 100 µM adenosine diphosphate (Sigma Chemical Co., St. Louis, MO, #A-6521), to induce platelet aggregation. Platelet aggregation was allowed to proceed for 5 minutes. Percent inhibition is calculated using percent aggregation in the presence of the test compound divided by percent aggregation of control, times 100. This value is subtracted from 100, yielding percent inhibition. Calculation of IC50 is performed on a Texas Instruments TI59 with an IC50 program.
Table 2 below sets forth the biological activity of representative compounds of the present invention. The indicated compounds were tested for their ability to inhibit platelet aggregation (using platelet rich plasma (PRP)). The IC50 value (the concentration of antagonist which inhibits platelet aggregation by 50% relative to a control lacking the antagonist) is shown. In Table 5 the IC50 values are expressed as: +++ = IC50 of <10 µM; ++ = ICso of 10-50 µM; + = IC50 of 50-100 µM (µM = micromolar).

N=C(N)c1ccc(C2=NOC(CC(=O)NCCC(=O)O)C2)cc1 (racemic) [Example 1, 5(R,S)-3-[3-(4-Amidinophenyl)isoxazolin-5-ylacetyl]aminopropanoic Acid]
IC50: < 10 µM

CNC(=N)c1ccc(C2=NOC(CC(=O)NCCC(=O)O)C2)cc1 (racemic) [Example 21]
IC50: < 10 µM

CCCNC(=N)c1ccc(C2=NOC(CC(=O)NCCC(=O)O)C2)cc1 (racemic) [Example 25]
IC50: < 10 µM

CCCCNC(=N)c1ccc(C2=NOC(CC(=O)NCCC(=O)OCC)C2)cc1 (racemic) [Example 26, Ethyl 5(R,S)-3-[3-(4-N-n-Butylamidinophenyl)isoxazolin-5-ylacetyl]aminopropanoate]
IC50: < 10 µM

CCCCNC(=N)c1ccc(C2=NOC(CC(=O)NCCC(=O)O)C2)cc1 (racemic) [Example 27]
IC50: < 10 µM

CCCCCNC(=N)c1ccc(C2=NOC(CC(=O)NCCC(=O)OCC)C2)cc1 (racemic) [Example 29]
IC50: < 10 µM

CCOC(=O)CCNC(=O)CC1CC(c2ccc(C(=N)NCCC(C)C)cc2)=NO1 (racemic) [Example 31]
IC50: < 10 µM

CCCCCNC(=N)c1ccc(C2=NOC(CC(=O)NCCC(=O)O)C2)cc1 (stereo not drawn) [Example 28]
IC50: < 10 µM

COC(=O)CCNC(=O)CC1CC(c2ccc(C(=N)NCc3ccccc3)cc2)=NO1 (stereo not drawn) [Example 32]
IC50: < 10 µM
